Reference: patent US8455448B2, “Myostatin isoform” (Myostin Therapeutics Pty Ltd, priority 2004, dated 2013)

Tests used:
[1] = tested on: human skeletal muscle myoblasts; assay: Proliferation assay of human primary myoblasts (methylene blue); format: cell-based; details: 0-10 μg/ml, 96 h, FIG. 12B
Experimental: Human skeletal muscle myoblasts (Cambrex, Australia) were seeded in 96-well tissue culture plates (Nunc, Roskilde, Denmark) at a cell density of 2000 cells per well in 200 μl of Skeletal Muscle Basal Medium (Cambrex, Australia) supplemented with foetal bovine serum (FBS, 10% v/v, Cambrex, Australia), and incubated overnight at 37° C. with 5% CO2. The medium was replaced with Dulbecco's modified Eagle's medium (DMEM, Invitrogen, California) supplemented with 5% foetal bovine serum (FBS, Invitrogen, California), penicillin (1×10^5 IU/l, Sigma, St Louis, Mo., USA) and streptomycin (100 mg/l, Sigma) buffered with NaHCO3 containing phenol red (7.22 nmol/l) as a pH indicator with 0, 0.1, 1, 5 and 10 μg/ml rhMSV38 or roMSV47 protein in a semi-random arrangement of eight replicates (n=8) for each test medium. Plates were incubated at 37° C. with 5% CO2 for 96 hours, and then the medium was removed. The wells were washed with 200 μl of phosphate buffered saline (PBS, Oxoid, UK) buffer and fixed with 100 μl of 10% formaldehyde, 0.9% NaCl solution for at least one hour. The fixative was then removed and 100 μl of 1% methylene blue stain in 0.01 M borate buffer (pH 8.5) was added to each well and incubated for 30 min at room temperature. Excess stain was removed by four sequential washes in borate buffer. Methylene blue was eluted from the cells by the addition of 100 μl 1:1 (v/v) ethanol/0.1 HCl. The plates were gently shaken and the absorbance was measured at 655 nm using a microplate photometer (VersaMax, Molecular Devices, CA).
Human skeletal muscle myoblasts (Cambrex, Australia) were seeded in 96-well tissue culture plates (Nunc, Roskilde, Denmark) at a cell density of 2000 cells per well in 200 μl of Skeletal Muscle Basal Medium (Cambrex, Australia) supplemented with foetal bovine serum (FBS, 10% v/v, Cambrex, Australia), and incubated overnight at 37° C. with 5% CO2. The medium was replaced with Dulbecco's modified Eagle's medium (DMEM, Invitrogen, California) supplemented with 5% foetal bovine serum (FBS, Invitrogen, California), penicillin (1×10^5 IU/l, Sigma, St Louis, Mo., USA) and streptomycin (100 mg/l, Sigma) buffered with NaHCO3 containing phenol red (7.22 nmol/l) as a pH indicator with no added protein, 1.5 or 3.0 μg/ml recombinant bovine mature myostatin alone and with combination of 0.3, 1, 3, 10 molar ratio of rhMSV38 to myostatin, and the same amounts of rhMSV38 without myostatin in a semi-random arrangement of eight replicates (n=8) for each test medium. Plates were incubated at 37° C. with 5% CO2 for 48 hours, and then the medium was removed. […] The plates were gently shaken and the absorbance was measured at 655 nm using a microplate photometer (VersaMax, Molecular Devices, CA).

[2] = tested on: proliferating cell nuclear antigen (PCNA); assay: PCNA protein in proliferating C2C12 myoblasts (Western blot); format: cell-based, murine; details: 0.1, 1, 10 μg/ml, 48 h, FIG. 7
Experimental: Thus, a decrease in p21 protein expression may indicate an increased cell proliferation rate. PCNA is a positive marker of cell proliferation. It is a subunit of DNA polymerase-delta during DNA replication in the cell cycle. Higher level of PCNA protein expression is associated with higher number of cells entering the DNA replication phase of the cell cycle.
C2C12 myoblasts were seeded in 10 cm diameter tissue culture plates (Nunc, Roskilde, Denmark) at a cell density of 3000 cells per cm^2 in 10 ml of Dulbecco's modified Eagle's medium (DMEM, Invitrogen, California) supplemented with foetal bovine serum (FBS, 10% v/v, Invitrogen), penicillin (1×105 IU/l, Sigma, St Louis, Mo., USA) and streptomycin (100 mg/l, Sigma) buffered with NaHCO3 containing phenol red (7.22 nmol/l) as a pH indicator, and incubated overnight at 37° C. with 5% CO2. The medium was replaced with the test medium: DMEM with 10% FBS supplemented with, 0.1, 1 or 10 μg/ml oMSV65 (n=3). The plates were then incubated at 37° C. with 5% CO2 for 48 hours. Cells were removed from the plate by trypsin treatment, washed with phosphate buffered saline (PBS, Oxoid, UK) and resuspended in 100 μl of lysis buffer (10 mM Hepes pH 7.9, 1.5 mM MgCl2, 10 mM KCl, 0.5% NP40, one Complete protease inhibitor tablet [Roche Diagnostics, USA] per 50 ml buffer). […] Band intensities were measured with a GS800 densitometer (BioRad, USA).

roMSV47: 47 amino acid C-terminal mature ovine MSV fragment (SEQ ID NO: 50), recombinant from E. coli (IIFLEVYIQFCSILGEAVFKRQSKSIHFCQNFKIIACLCNTAAFRMK; Ovis aries)
proliferation of human myoblasts [1]: able to stimulate human myoblast proliferation

B1: roMSV65: 65 amino acid C-terminal peptide of ovine MSV (SEQ ID NO: 49) expressed as recombinant protein in E. coli (protein)
chain: VHFYTPPYGQWIFHKERKIIFLEVYIQFCSILGEAVFKRQSKSIHFCQNFKIIACLCNTAAFRMK
modifications: Ovis aries
PCNA protein levels in C2C12 myoblasts [2]: concentration-dependent increase in PCNA protein levels
